Target: Acetyl-CoA carboxylase 2 (Homo sapiens, UniProt O00763)
Assay: Spectrophotometric 384 Well Assay: Assay reactions are then carried out in 384-well plates, with hACC2 in an appropriate dilution and at final assay concentrations (f.c.) of 100 mM Tris (pH 7.5), 10 mM trisodium citrate, 25 mM KHCO3, 10 mM MgCl2, 0.5 mg/ml BSA, 3.75 mM reduced L-glutathione, 15 U/ml lactate dehydrogenase, 0.5 mM phosphoenolpyruvate, 15 U/ml pyruvate kinase, compounds at different concentrations at final DMSO concentrations of 1%.The enzymatic reaction is then started by addition of a mixture of NADH, acetyl Coenzyme A (both […].) and ATP (500 uM f.c.). The decrease of the optical density (slope S) is then determined at 25° C. at a wavelength of 340 nm over 15 minutes in a spectrophotometric reader.Each assay microtiter plate contains wells with vehicle instead of compound as controls for the non-inhibited enzyme (100% CTL; HIGH) and wells without acetyl-CoA as controls for non-specific NADH degradation (0% CTL; LOW).

Acetyl-CoA carboxylase 2, sequence (O00763 whole entry): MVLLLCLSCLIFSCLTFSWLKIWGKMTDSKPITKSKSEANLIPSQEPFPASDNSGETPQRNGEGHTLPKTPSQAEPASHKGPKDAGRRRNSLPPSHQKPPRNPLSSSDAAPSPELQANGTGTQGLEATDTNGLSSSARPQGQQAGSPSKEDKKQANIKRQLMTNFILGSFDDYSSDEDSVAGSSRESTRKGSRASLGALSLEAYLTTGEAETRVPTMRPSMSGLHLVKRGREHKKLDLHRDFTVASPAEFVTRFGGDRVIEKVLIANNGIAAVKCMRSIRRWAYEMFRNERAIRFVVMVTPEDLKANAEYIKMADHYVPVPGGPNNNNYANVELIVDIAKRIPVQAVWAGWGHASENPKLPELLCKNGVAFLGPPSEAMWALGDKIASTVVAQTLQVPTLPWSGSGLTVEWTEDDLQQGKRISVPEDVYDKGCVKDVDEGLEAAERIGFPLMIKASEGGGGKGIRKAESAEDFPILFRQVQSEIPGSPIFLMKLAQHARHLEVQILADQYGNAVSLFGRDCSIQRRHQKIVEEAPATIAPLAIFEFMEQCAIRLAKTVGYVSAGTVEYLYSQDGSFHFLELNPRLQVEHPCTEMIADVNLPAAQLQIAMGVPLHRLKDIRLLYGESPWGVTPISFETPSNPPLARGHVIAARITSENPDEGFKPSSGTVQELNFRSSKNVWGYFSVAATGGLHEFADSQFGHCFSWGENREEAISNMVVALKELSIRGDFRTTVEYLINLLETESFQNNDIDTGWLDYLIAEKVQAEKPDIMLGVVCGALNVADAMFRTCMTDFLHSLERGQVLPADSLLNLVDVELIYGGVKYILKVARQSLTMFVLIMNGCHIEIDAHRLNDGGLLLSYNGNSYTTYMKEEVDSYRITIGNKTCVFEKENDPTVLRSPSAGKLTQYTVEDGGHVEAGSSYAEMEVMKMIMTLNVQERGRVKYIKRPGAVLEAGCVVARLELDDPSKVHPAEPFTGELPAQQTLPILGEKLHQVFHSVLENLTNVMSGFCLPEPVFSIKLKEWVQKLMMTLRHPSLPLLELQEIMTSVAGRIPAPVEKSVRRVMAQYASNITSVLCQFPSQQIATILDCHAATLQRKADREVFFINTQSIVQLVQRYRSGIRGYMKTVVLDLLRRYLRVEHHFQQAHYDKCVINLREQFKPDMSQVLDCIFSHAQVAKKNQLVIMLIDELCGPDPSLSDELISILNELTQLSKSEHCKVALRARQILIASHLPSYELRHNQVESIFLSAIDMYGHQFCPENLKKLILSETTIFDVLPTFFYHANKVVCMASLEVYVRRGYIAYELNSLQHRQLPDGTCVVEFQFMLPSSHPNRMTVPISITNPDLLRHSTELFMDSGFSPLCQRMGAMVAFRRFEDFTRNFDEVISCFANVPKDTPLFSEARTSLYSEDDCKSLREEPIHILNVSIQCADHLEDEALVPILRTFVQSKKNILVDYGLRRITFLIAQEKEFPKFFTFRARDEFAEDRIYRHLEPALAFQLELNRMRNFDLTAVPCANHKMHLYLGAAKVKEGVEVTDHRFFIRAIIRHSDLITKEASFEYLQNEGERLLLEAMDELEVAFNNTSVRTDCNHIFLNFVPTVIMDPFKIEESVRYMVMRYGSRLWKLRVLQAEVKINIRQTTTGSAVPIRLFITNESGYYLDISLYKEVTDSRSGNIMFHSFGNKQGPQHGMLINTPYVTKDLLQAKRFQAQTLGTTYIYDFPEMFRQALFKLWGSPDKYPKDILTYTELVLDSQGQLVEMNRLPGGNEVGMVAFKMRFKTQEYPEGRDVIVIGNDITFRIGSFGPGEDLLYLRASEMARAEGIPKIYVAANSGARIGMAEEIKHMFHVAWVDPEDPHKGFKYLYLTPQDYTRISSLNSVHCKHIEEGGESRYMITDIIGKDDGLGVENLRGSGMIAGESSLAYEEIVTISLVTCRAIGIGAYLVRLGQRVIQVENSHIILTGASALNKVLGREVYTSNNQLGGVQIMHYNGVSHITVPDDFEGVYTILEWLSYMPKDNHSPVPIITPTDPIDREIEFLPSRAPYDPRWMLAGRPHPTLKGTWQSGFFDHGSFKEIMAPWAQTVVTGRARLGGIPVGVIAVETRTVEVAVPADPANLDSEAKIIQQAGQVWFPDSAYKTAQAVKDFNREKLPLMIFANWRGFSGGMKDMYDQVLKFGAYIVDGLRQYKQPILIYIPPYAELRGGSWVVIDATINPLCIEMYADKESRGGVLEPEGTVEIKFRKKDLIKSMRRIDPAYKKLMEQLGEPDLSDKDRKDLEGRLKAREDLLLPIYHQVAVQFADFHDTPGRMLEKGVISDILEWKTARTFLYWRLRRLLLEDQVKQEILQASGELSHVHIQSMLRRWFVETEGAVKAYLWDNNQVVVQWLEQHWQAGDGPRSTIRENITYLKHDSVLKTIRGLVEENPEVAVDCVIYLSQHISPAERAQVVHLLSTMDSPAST

With `CC(=O)N[C@@H](C)c1ccc(CN2CCc3cc(OCC4CC4)ccc3C2C(=O)O)cc1` (some centres not stated) as the molecule, how does the IC50 read?
The IC50 was 806 nM.

Which IC50 does the source give for `C[C@H](NC(=O)N(C)C)c1ccc(CN2Cc3ccc(OCC4CC4)cc3C(F)C2)cc1` (some centres not stated) here?
Its IC50 is 22 nM.
